Numbering of substitutions follows the chain as printed. Like-named read-outs stand apart in the source and are kept apart here.
What was measured:
Type in all cases: cell-based
VCaP cells = assay: Inhibition of proliferation of VCaP cells (WST-8); conditions: Homo sapiens, read-out: IC50 for inhibiting the proliferation of VCaP cells
Summary of the method: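 Proliferation was read by WST-8 on day nine. Cells were VCaP FGC, seeded at 15000 cells per well in 10% FBS DMEM and kept at 37° C with 5% CO2.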

AR protein [1] = molecular target: T1, AR protein (Homo sapiens, UniProt P10275); assay: Degradation of AR protein in VCaP cells (Western blot); conditions: 8 hours; for inhibition at 0.01 µM: compound at 10 nM, read-out: Degradation rate of the AR protein in VCaP cells, 10 nM (%); for inhibition at 0.1 µM: compound at 100 nM, read-out: Degradation rate of the AR protein in VCaP cells, 100 nM (%)
T1 construct: degradation activity of the compounds disclosed in the present disclosure on AR protein in VCaP cells; host or cells: VCaP
T1 sequence (P10275 1-920): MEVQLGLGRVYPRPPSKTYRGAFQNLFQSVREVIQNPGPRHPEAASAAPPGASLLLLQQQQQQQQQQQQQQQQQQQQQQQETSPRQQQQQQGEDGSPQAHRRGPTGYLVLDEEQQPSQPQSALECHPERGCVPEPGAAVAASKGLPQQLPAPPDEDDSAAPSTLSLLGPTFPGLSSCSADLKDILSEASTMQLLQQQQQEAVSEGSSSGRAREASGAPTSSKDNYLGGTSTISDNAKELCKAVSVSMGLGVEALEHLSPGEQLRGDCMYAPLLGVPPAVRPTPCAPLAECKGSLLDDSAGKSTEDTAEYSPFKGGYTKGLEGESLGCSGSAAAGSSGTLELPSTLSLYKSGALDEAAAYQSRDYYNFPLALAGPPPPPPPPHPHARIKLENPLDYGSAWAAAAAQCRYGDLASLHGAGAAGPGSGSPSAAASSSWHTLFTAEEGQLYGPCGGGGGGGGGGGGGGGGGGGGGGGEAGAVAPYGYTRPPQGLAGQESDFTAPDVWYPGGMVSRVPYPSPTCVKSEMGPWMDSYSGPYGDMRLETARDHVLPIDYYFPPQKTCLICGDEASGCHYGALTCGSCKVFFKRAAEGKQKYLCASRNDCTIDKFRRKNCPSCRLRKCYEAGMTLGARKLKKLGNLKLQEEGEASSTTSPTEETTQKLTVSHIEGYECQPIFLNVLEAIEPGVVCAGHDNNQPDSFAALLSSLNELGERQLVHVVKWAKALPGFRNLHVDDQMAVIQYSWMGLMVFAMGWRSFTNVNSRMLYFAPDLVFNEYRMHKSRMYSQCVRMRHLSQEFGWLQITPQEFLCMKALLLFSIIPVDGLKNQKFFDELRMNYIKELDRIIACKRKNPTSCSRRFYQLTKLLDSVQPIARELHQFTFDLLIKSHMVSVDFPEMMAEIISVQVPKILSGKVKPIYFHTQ
Summary of the method: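 Western blot readout: AR band grayscale normalised to GAPDH, used to derive degradation rate. Lysates came from VCaP cells exposed to compound for 8 h, with solvent controls run in parallel.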

LNCaP FGC cells = assay: Inhibition of proliferation of LNCaP cells (WST-8); conditions: Homo sapiens, LNCaP, 96 h
Procedure: The cells were cultured in a cell culture incubator with 5% CO2 at 37° C. overnight. […] On the sixth day, 96 well plates were taken out, and 20 μL of WST-8 (Beytime, C0040) reagent was added to each well.

AR protein [2] = molecular target: T2, AR protein (Homo sapiens, UniProt P10275, T878A); assay: Degradation of AR protein in LNCaP cells (Western blot); conditions: for inhibition at 0.01 µM: read-out: Degradation rates of the AR protein in LNCaP cells, 10 nM (%); for inhibition at 0.1 µM: read-out: Degradation rates of the AR protein in LNCaP cells, 100 nM (%)
T2 construct: degradation activity of the compounds disclosed in the present disclosure on AR protein in LNCaP cells; host or cells: LNCaP FGC
T2 sequence (P10275 1-920 T878A): T1 sequence (P10275 1-920) with T878A
Summary of the method: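 Percent AR degradation was derived from GAPDH-normalised Western blot band intensities (infrared detection) in LNCaP lysates.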

[3] = VCaP cells, 168 hours, WST-8 absorbance at 450 nm
[4] = LNCaP FGC cells, 96 hours, WST-8 absorbance at 450 nm, read-out: IC50 for inhibiting the proliferation of LNCaP cells
[5] = LNCaP cells, compound 10 nM, 8 hours, Western blot grayscale, GAPDH internal reference
[6] = LNCaP cells, compound 100 nM, 8 hours, Western blot grayscale, GAPDH internal reference

IC50 (VCaP cells; [3]) [nM] | inhibition at 0.01 µM (AR protein [1]) [%] | inhibition at 0.1 µM (AR protein [1]) [%] | IC50 (LNCaP FGC cells; [4]) [nM] | inhibition at 0.01 µM (AR protein [2]; [5]) [%] | inhibition at 0.1 µM (AR protein [2]; [6]) [%] | SMILES | IC50 (VCaP cells; VCaP, 168 h) [nM] | IC50 (LNCaP FGC cells; read-out: IC50 for inhibiting the proliferation of LNCaP cells, LNCaP FGC cells, 96 hours, WST-8 absorbance at 450 nm) [nM] | inhibition at 0.01 µM (AR protein [2]; LNCaP, 8 h) [%] | inhibition at 0.1 µM (AR protein [2]; LNCaP, 8 h) [%]
960 | 50 | 78 | 390 | 26 | 64 | COC1(CN2CCC3(CC2)COc2cc4c(cc2C3)C(=O)N(C2CCC(=O)NC2=O)C4=O)CCN(c2ccc(C(=O)NC3CCC(Oc4ccc(C#N)c(Cl)c4)CC3)nn2)CC1 (stereo not drawn) [Compound 69] | – | – | – | –
580 | 39 | 80 | 800 | 35 | 65 | CC1(CN2CCC3(CCc4cc5c(cc4O3)C(=O)N(C3CCC(=O)NC3=O)C5=O)CC2)CCN(c2ccc(C(=O)N[C@H]3CC[C@H](Oc4ccc(C#N)c(Cl)c4)CC3)nn2)CC1 (stereo partly drawn) [Compound 17] | – | – | – | –
> 90000 | -16 | -31 | 52300 | 42 | 11 | N#Cc1ccc(O[C@H]2CC[C@H](NC(=O)c3ccc(N4CCC(F)(CN5CC6(CCc7ccc8c(c7O6)C(=O)N(C6CCC(=O)NC6=O)C8)C5)CC4)nn3)CC2)cc1Cl (stereo partly drawn) [Compound 139] | – | – | – | –
> 90000 | 51 | 72 | 28300 | 45 | 24 | N#Cc1ccc(O[C@H]2CC[C@H](NC(=O)c3ccc(N4CC5(CC(N6CCC7(CCc8ccc9c(c8O7)CN(C7CCC(=O)NC7=O)C9=O)CC6)C5)C4)nn3)CC2)cc1Cl (stereo partly drawn) [Compound 152] | – | – | – | –
> 90000 | -43 | 23 | 96600 | 28 | 25 | COC1(CN2CC3(CCc4ccc5c(c4O3)C(=O)N(C3CCC(=O)NC3=O)C5=O)C2)CCN(c2ccc(C(=O)N[C@H]3CC[C@H](Oc4ccc(C#N)c(Cl)c4)CC3)nn2)CC1 (stereo partly drawn) [Compound 165] | – | – | – | –
230 | 58 | 64 | 600 | 71 | 84 | N#Cc1ccc(O[C@H]2CC[C@H](NC(=O)c3ccc(N4CC[C@H](CN5CCC6(CCc7cc8c(cc7O6)C(=O)N(C6CCC(=O)NC6=O)C8=O)CC5)C4)nn3)CC2)cc1Cl (stereo partly drawn) [Compound 22] | – | – | – | –
8.5 | 29 | 77 | 68600 | 50 | 63 | N#Cc1ccc(O[C@H]2CC[C@H](NC(=O)c3ccc(N4CCN(CC(=O)N5CCC6(CC5)COc5c6ccc6c5CN(C5CCC(=O)NC5=O)C6=O)CC4)nn3)CC2)cc1Cl (stereo partly drawn) [Compound 241] | – | – | – | –

The next lines start with the molecule.

SMILES | IC50 (VCaP cells; [3]) [nM] | inhibition at 0.01 µM (AR protein [1]) [%] | inhibition at 0.1 µM (AR protein [1]) [%] | IC50 (LNCaP FGC cells; [4]) [nM] | inhibition at 0.01 µM (AR protein [2]; [5]) [%] | inhibition at 0.1 µM (AR protein [2]; [6]) [%] | IC50 (VCaP cells; VCaP, 168 h) [nM] | IC50 (LNCaP FGC cells; read-out: IC50 for inhibiting the proliferation of LNCaP cells, LNCaP FGC cells, 96 hours, WST-8 absorbance at 450 nm) [nM] | inhibition at 0.01 µM (AR protein [2]; LNCaP, 8 h) [%] | inhibition at 0.1 µM (AR protein [2]; LNCaP, 8 h) [%]
N#Cc1ccc(O[C@H]2CC[C@H](NC(=O)c3ccc(N4CCC(N5CCC6(CCc7ccc8c(c7O6)CN(C6CCC(=O)NC6=O)C8=O)CC5)CC4)nn3)CC2)cc1Cl (stereo partly drawn) [Compound 171] | – | 46 | 62 | – | – | – | 1 | 13500 | 22 | 44
N#Cc1ccc(OC2CCC(NC(=O)c3ccc(N4CC5(CC(N6CCC7(CC6)COc6cc8c(cc6C7)C(=O)N(C6CCC(=O)NC6=O)C8=O)C5)C4)nn3)CC2)cc1Cl (stereo not drawn) [Compound 66] | 530 | 49 | 42 | 420 | 72 | 74 | – | – | – | –
N#Cc1ccc(O[C@H]2CC[C@H](NC(=O)c3ccc(N4CC5(CCC(N6CCC7(CC6)COc6cc8c(cc67)C(=O)N(C6CCC(=O)NC6=O)C8=O)CC5)C4)nn3)CC2)cc1Cl (stereo partly drawn) [Compound 53] | 43 | 62 | 71 | 380 | 69 | 85 | – | – | – | –
COc1cc(O[C@H]2C(C)(C)[C@H](NC(=O)c3ccc(N4CCC(C)(CN5CCC6(CC5)COc5cc7c(cc56)C(=O)N(C5CCC(=O)NC5=O)C7=O)CC4)cc3)C2(C)C)ccc1C#N (stereo partly drawn) [Compound 288] | 74 | 7 | 41 | 65900 | -18 | 18 | – | – | – | –
N#Cc1ccc(O[C@H]2CC[C@H](NC(=O)c3ccc(N4CC(N5CCC6(CC5)COc5c6ccc6c5C(=O)N(C5CCC(=O)NC5=O)C6=O)C4)nn3)CC2)cc1Cl (stereo partly drawn) [Compound 142] | 15100 | 26 | 74 | > 90000 | 29 | 52 | – | – | – | –
N#Cc1ccc(O[C@H]2CC[C@H](NC(=O)c3ccc(N4CCC5(CCC(N6CCC7(CC6)COc6cc8c(cc6C7)C(=O)N(C6CCC(=O)NC6=O)C8=O)CC5)CC4)nn3)CC2)cc1Cl (stereo partly drawn) [Compound 64] | 160 | 62 | 73 | 800 | 44 | 72 | – | – | – | –
COc1cc(O[C@H]2C(C)(C)[C@H](NC(=O)c3ccc(N4CCC(C)(CN5CCC6(CCc7ccc8c(c7O6)CN(C6CCC(=O)NC6=O)C8=O)CC5)CC4)cc3)C2(C)C)ccc1C#N (stereo partly drawn) [Compound 283] | 13 | 2 | 45 | 97600 | 53 | 66 | – | – | – | –
COc1cc(OC2C(C)(C)C(NC(=O)c3ccc(N4CCC(CN5CCC6(CC5)COc5cc7c(cc56)C(=O)N(C5CCC(=O)NC5=O)C7=O)CC4)cc3)C2(C)C)ccc1C#N (stereo not drawn) [Compound 280] | 45 | 15 | 77 | 9250 | 36 | 52 | – | – | – | –

Source: US20260234157A1, “COMPOUND AND METHOD FOR TARGETED DEGRADATION OF ANDROGEN RECEPTOR” (Gan & Lee Pharmaceuticals Co., Ltd., priority 2023, published 2026)
